Measured values published in article PMC4311969 (Journal of the American Chemical Society, 2015).
Values joined by “and” are separate entries in the source; they are usually repeats but may differ in a detail not shown here. Equal values may be shown once. Where a name gives a salt, the structure may show the parent alone. Read-outs that look alike come from different tables or passages of the source.

Key:
[1] = target: T1, yeast triosephosphate isomerase (ScTIM) (Saccharomyces cerevisiae, UniProt P00942); assay: Oxydianion activation of ScTIM-catalyzed reactions of [1-13C]-GA in D2O; type: biochemical; details: for Kd: read-out: KX, dissociation constant for release of the oxydianion from ScTIM, 20 mM [1-^13C]-GA in D2O, pD 7.0 (20 mM imidazole), I = 0.1 (NaCl), fit to eq 3; for Kd / RT ln(K^‡)X, intrinsic Gibbs dianion binding free energy: 25 °C; for RT ln(K^‡)X, intrinsic Gibbs dianion binding free energy: [1-^13C]-GA in D2O
T1 sequence (P00942 1-248): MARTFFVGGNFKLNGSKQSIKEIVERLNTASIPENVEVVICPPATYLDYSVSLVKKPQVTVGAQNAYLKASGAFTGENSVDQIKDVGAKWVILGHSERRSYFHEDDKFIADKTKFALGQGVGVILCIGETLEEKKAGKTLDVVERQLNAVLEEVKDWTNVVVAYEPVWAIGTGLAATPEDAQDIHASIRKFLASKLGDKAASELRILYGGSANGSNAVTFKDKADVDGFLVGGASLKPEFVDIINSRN

[2] = target: T2, human liver glycerol 3-phosphate dehydrogenase (hlGPDH) (Homo sapiens, UniProt P21695); assay: Oxydianion activation of hlGPDH-catalyzed reduction of GA by NADH; type: biochemical; details: for RT ln(K^‡)X, intrinsic Gibbs dianion binding free energy: hlGPDH-catalyzed reduction of GA
T2 sequence (P21695 1-349): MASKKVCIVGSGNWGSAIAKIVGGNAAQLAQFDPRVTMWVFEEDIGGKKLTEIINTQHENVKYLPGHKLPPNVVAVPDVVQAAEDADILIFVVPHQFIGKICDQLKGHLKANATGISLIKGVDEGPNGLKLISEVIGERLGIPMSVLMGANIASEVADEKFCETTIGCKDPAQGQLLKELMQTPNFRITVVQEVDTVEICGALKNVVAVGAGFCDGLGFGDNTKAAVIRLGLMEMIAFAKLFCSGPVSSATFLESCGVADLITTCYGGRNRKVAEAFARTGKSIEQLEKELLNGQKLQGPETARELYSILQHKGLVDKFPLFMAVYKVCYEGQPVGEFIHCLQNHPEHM

[3] = target: T3, yeast orotidine monophosphate decarboxylase (ScOMPDC) (Saccharomyces cerevisiae, UniProt P03962, C155S); details: cited from earlier work; for intrinsic oxydianion binding energy (ΔG^‡): ScOMPDC-catalyzed decarboxylation of EO
T3 sequence (P03962 1-267 C155S): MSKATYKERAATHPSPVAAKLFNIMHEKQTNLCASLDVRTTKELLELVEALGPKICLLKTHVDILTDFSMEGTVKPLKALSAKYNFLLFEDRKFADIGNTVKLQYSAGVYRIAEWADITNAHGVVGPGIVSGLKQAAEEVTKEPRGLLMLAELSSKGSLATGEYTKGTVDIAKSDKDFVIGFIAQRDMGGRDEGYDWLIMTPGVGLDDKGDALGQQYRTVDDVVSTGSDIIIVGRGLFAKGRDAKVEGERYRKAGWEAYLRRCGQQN

[4] = target: T3, yeast orotidine monophosphate decarboxylase (ScOMPDC); assay: Oxydianion activation of ScOMPDC-catalyzed decarboxylation of EO; type: biochemical
[5] = target: T4, human liver GPDH (hlGPDH) (Homo sapiens, UniProt P21695); type: biochemical; details: identical plots at 0.10 or 0.20 mM NADH; printed ≪
T4 sequence (P21695 1-349): T2 sequence (P21695 1-349)

ScOMPDC = details: cited from earlier work
[6] = pH 7.5 (10 mM TEA), 25 °C, 0.2 mM NADH, I = 0.12 (NaCl)

For O=S(O)(O)=S [S2O3^2–, thiosulfate dianion], the Kd [1] is given as 7 ± 1 mM, the “(kcat)E·X, first-order rate constant for turnover of the Michaelis complex” value (“(kcat)E·X, first-order rate constant” for short) [2, 6] is given as 0.0190 ± 0.002 s^–1 and the “intrinsic oxydianion binding energy (ΔG^‡)” value [3] is given as -4.6 kcal/mol.

In the case of O=C(O)c1cc(=O)n([C@@H]2OC[C@@H](O)[C@H]2O)c(=O)[nH]1 [EO, 1-(β-D-erythrofuranosyl)orotic acid], the “k′cat, turnover of the complex between enzyme and substrate pieces” value ([4]; EO + HPO3^2–, calculated using published (kcat/Km)E·HPi and Kd (ref 10)) is listed as “≈ 160 ^f s^–1” and the Kd ([3]; read-out: Kd of truncated substrate, substrate pieces, EO + HPO3^2–) is listed as 100 mM and ~100 mM.

For O=CCO [GA, glycolaldehyde], the “k′cat, turnover of the complex between enzyme and substrate pieces” value ([2]; GA + HPO3^2–, estimated as [(kcat/Km)E·HPi]Kd) was 5.5 s^–1, the “kcat, unactivated reduction of GA” value ([2]; no dianion, 0.05 mM hlGPDH, pH 7.5, 25 °C, 0.2 mM NADH, I = 0.12 (NaCl)) was 3.1 × 10^–4 s^–1 and the “KGA, unactivated reduction of GA” value ([2]; no dianion, carbonyl form of GA, pH 7.5, 25 °C, 0.2 mM NADH, I = 0.12 (NaCl)) was 6.2 mM. The Kd ([2]; read-out: Kd of truncated substrate, substrate pieces, GA + HPO3^2–) was 5 mM.

In the case of O=P(O)(O)O [HOPO3^2–, phosphate], the “RT ln(K^‡)X, intrinsic Gibbs dianion binding free energy” value ([2]; 25 °C) is given as “–4.9 kcal/mol”, the “(kcat)E·X, first-order rate constant” value [2, 6] is given as 0.032 ± 0.002 s^–1 and the “intrinsic oxydianion binding energy (ΔG^‡)” value [3] is given as -3.0 kcal/mol.

For O=[PH](O)O [HPO3^2–, phosphite dianion], the “intrinsic dianion binding energy (given without sign)” value ([1]; ScTIM) was 6.3 kcal/mol, the “RT ln(K^‡)X, intrinsic Gibbs dianion binding free energy” value ([1]; ScTIM) was “–6.3 kcal/mol” and the “RT ln(K^‡)X, intrinsic Gibbs dianion binding free energy” value ([1]; ScTIM, listed as phosphite dianion) was −6.3 kcal/mol. For the same compound, the “ratio of (kcat/Km)E·X/KX to (kcat/Km)E” value ([1]; ScTIM-catalyzed isomerization, substrate pieces) was 4.4 × 10^4 M^–1, the Kd [1] was 18 ± 3 mM and the “RT ln(K^‡)X, intrinsic Gibbs dianion binding free energy” value ([2]; 25 °C) was “–7.5 kcal/mol”. For the same compound, the “RT ln(K^‡)X, intrinsic Gibbs dianion binding free energy” value ([2]; 25 °C, listed as phosphite dianion) was −7.5 kcal/mol, the “(kcat)E·X, first-order rate constant” value [2, 6] was 5.5 ± 0.3 s^–1 and the Kd ([2]; read-out: KX, dissociation constant for release of the oxydianion from the binary or ternary enzyme complex, pH 7.5 (10 mM TEA), 25 °C, 0.2 mM NADH, I = 0.12 (NaCl)) was 70 ± 4 mM. For the same compound, the “intrinsic dianion binding energy (given without sign)” value ([4]; ScOMPDC) was 7.7 kcal/mol, the “ratio of (kcat/Km)E·X/KX to (kcat/Km)E” value ([4]; yeast OMPDC-catalyzed decarboxylation, substrate pieces) was 4.4 × 10^5 M^–1 and the “intrinsic oxydianion binding energy (ΔG^‡)” value [3] was -7.7 kcal/mol.

Compound NC(=O)C1=CN([C@@H]2O[C@H](COP(=O)(O)OP(=O)(O)OC[C@H]3O[C@@H](n4cnc5c(N)ncnc54)[C@H](O)[C@@H]3O)[C@@H](O)[C@H]2O)C=CC1 [NADH] has a Km [5] of less than 100 µM.

In the case of O=C(O)c1cc(=O)[nH]c(=O)n1[C@@H]1O[C@H](COP(=O)(O)O)[C@@H](O)[C@H]1O [OMP, Orotidine 5′-monophosphate], the “kcat, turnover of whole substrate” value (ScOMPDC) is listed as 16 s^–1.

In the case of O=[As](O)(O)O [HOAsO3^2–], the “intrinsic oxydianion binding energy (ΔG^‡)” value [3] is given as “no activation detected”.

For O=S(=O)(O)O [SO4^2–, sulfate], the “RT ln(K^‡)X, intrinsic Gibbs dianion binding free energy” value ([2]; 25 °C) is given as “–5.9 kcal/mol”, the “(kcat)E·X, first-order rate constant” value [2, 6] is given as 0.360 ± 0.040 s^–1 and the “intrinsic oxydianion binding energy (ΔG^‡)” value [3] is given as -4.5 kcal/mol.

For O=S(O)O [SO3^2–], the “intrinsic oxydianion binding energy (ΔG^‡)” value [3] is given as -8.3 kcal/mol.
